Source: patent publication US11730705B2, “Small molecule CMKLR1 antagonists in inflammatory disease” (The Board of Trustees of the Leland Stanford Junior …, priority 2019, dated 2023)
Several values for one entry are separate records, joined by “and”; a condition that tells them apart may be missing. Equal values may be shown once. Read-outs that look alike come from different tables or passages of the source.

What was measured:
EAE in C57BL/6 mice = assay: EAE induced by MOG35-55/CFA immunization; format: in vivo, mouse; conditions: FIG. 1C; 10 mg/kg daily; compared with Tecfidera or vehicle control
Protocol: FIG. 1A-1D. […] (FIG. 1D) The integrated clinical score over time for each animal was calculated as area under the curve (AUC).
EAE. […] CFA consisted of 5 mg/ml mTB (Mycobacterium-tuberculosis H37 Ra, BD Difco) in IFA (Incomplete Freund's Adjuvant, Sigma). MOG35-55 was reconstituted at 2 mg/ml in PBS. Mice also received 200 ng pertussis toxin (List Biological Laboratories, Inc) by i.p. injection at the time of immunization and two days later. […] For a direct comparison to α-NETA, the DMF and compound doses were also 10 mg/kg in 10% captisol. Mice were monitored daily for clinical disease and scored (0=normal/healthy, 1=limp tail, 2=hindlimb weakness, 3=hindlimb paralysis, 4=hindlimb and forelimb paralysis, 5=moribund/dead).

[1] = system: cytochrome P450 (Cyp) drug metabolizing enzymes; assay: Time-dependent (mechanism-based) Cyp inhibition; format: in vitro ADME, human
Protocol: (§1) Cyp enzyme inhibition. Human liver microsomes were pre-incubated with 7 concentrations ([…], duplicate wells) of α-NETA for 30 min.

[2] = target: Pregnane X receptor (PXR) (Homo sapiens, UniProt O75469); assay: Cyp induction (PXR luciferase reporter); format: cell-based; conditions: concentrations up to 50 uM
Pregnane X receptor (PXR), sequence (O75469 whole entry): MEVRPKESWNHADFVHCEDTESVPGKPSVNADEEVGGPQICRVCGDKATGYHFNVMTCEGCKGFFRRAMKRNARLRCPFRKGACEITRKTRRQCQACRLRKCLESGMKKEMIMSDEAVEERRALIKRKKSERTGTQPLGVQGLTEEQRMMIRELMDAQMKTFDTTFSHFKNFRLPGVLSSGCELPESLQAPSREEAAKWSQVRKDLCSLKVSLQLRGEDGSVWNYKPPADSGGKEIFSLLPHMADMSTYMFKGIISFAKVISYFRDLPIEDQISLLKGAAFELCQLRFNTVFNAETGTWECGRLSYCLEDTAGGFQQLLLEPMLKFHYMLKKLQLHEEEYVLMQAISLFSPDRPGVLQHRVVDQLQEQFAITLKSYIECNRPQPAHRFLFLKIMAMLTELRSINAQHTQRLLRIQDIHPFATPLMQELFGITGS
Protocol: (§2) Pregnane X receptor (PXR) activation was used as a marker of Cyp induction.
Pregnane X receptor (PXR) activation was used as a marker of Cyp induction. An engineered human hepatoma cell line with a PXR luciferase reporter was incubated with the indicated concentrations of α-NETA, Rifampicin (positive control), or DMSO (negative control), and luciferase activity assessed (Cyprotex/Evotec AG).

hERG = target: T1, hERG (Homo sapiens, UniProt Q12809); assay: hERG inhibition patch-clamp assay, CHO-hERG cells; format: cell-based; conditions: hERG tail current, preliminary studies
T1 construct: host or cells: CHO
T1 sequence (Q12809 whole entry): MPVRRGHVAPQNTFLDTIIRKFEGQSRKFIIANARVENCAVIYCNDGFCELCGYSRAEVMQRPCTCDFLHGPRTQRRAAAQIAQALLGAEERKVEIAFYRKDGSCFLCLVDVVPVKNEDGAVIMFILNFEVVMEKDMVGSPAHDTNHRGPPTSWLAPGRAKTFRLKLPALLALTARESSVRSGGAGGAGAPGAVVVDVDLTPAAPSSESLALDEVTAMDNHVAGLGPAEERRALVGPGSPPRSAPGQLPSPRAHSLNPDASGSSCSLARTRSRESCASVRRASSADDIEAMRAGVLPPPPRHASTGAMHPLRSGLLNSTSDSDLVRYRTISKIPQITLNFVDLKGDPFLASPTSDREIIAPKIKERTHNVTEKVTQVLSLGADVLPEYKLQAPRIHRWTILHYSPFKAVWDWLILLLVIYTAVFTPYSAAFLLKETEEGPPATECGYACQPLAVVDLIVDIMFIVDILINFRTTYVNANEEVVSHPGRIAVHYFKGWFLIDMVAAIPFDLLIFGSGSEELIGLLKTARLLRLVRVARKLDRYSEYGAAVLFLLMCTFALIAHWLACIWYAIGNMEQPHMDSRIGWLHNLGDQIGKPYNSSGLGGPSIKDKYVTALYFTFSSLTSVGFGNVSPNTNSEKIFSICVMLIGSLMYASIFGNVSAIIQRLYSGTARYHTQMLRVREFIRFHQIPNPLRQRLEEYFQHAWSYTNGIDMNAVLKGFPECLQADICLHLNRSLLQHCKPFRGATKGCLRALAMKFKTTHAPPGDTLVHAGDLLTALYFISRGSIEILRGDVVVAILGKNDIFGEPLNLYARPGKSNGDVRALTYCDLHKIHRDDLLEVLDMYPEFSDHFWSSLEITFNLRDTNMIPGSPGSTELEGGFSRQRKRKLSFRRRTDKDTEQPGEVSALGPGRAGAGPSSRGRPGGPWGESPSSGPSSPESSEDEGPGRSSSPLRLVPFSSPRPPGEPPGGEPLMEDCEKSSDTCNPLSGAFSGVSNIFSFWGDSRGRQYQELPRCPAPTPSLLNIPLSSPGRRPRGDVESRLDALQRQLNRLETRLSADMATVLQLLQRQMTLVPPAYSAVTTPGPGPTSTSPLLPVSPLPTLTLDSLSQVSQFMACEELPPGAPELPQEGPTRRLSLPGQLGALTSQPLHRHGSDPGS
Protocol: as §2
The cell was depolarized, and the hERG tail current was measured, and IC50 determined (Cyprotex/Evotec AG).

[3] = system: IMQ-induced psoriasis in mice; assay: IMQ-induced psoriasis model; format: in vivo, mouse
Protocol: FIG. 11A-11G. […] Representative images of the same mouse shown over time. […] Mice were treated twice daily with IMQ±dexamethasone (DEX, 200 ug/mouse) 1 h prior to IMQ treatment. […] (FIG. 11G) NK cell (CD45+DX5+CD11b-CD3-CD19-) infiltration into lesional or non-lesional adjacent skin was determined by flow cytometry (6 day timepoint) for IMQ-treated WT and chemerin KO mice. mean±SEM, n=4 mice per genotype, ***p<0.005 by 2-tailed t-test; **p<0.01 by 2-tailed t-test; *p<0.05 by 1-tailed t-test.
FIG. 13A-13D. […] Fold change with respect to day 0 measurements are shown. […] For A-C, n=3 untreated, n=5 IMQ-treated mice of each genotype, mean±SEM, *p<0.05 by 2-tailed t-test.
FIG. 15A-15D. […] IC50 values were determined based on 6-point dose-response curves for each compound. (FIG. 15A) α-NETA. […] (FIG. 15A-15C) mean±SEM, n=3-18 independent experiments. […] 0.2 ml each compound (in 10% captisol) or vehicle control was administered by oral gavage beginning one day prior to psoriasis induction. Back skin thickness was measured daily and normalized to day 0. mean±SEM, n=10 mice for vehicle and α-NETA groups pooled from two independent trials; n=3 mice for (27) and (6) from one trial.

Cyp1A2 = Cyp1A2 (Homo sapiens, UniProt P05177); conditions: PubChem BioAssay ID 1476; read-out: Cyp Inhibition IC50 (μM), Cyp1A2; cited from earlier work
Cyp1A2, sequence (P05177 whole entry): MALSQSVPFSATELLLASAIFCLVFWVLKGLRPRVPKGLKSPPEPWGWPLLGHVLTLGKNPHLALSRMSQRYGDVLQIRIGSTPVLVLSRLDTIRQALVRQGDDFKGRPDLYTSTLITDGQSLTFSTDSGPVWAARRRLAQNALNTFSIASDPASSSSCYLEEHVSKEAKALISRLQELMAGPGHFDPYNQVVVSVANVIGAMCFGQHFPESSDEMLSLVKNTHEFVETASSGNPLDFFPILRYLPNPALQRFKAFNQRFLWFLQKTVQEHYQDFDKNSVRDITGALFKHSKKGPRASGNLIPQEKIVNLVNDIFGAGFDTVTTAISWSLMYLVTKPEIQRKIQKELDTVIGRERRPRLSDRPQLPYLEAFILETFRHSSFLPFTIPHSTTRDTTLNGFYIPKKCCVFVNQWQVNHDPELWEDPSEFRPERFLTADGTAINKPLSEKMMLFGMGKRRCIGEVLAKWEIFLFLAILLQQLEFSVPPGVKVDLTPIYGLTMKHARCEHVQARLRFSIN

Cyp2D6 = target: T2, Cyp2D6 (Homo sapiens, UniProt P10635); conditions: PubChem BioAssay ID 1461; read-out: Cyp Inhibition IC50 (μM), Cyp2D6; cited from earlier work
T2 construct: tissue Cyprotex/Evotec AG; host or cells: human liver microsomes
T2 sequence (P10635 whole entry): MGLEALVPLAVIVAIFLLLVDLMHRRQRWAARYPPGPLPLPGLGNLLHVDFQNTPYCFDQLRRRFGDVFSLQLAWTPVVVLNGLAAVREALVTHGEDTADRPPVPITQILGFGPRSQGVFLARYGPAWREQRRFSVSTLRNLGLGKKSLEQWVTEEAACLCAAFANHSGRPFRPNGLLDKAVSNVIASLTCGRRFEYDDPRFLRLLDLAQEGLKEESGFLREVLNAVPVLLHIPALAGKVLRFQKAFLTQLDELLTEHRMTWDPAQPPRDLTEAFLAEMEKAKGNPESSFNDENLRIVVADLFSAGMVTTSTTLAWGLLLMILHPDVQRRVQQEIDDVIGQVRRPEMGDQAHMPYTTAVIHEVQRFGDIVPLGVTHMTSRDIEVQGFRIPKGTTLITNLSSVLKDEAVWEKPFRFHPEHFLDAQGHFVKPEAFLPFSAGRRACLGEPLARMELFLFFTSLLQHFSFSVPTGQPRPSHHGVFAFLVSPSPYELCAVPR

[4] = 5 μg into the uterine horn on days 6, 9 and 12 following fertilization; cited from earlier work
Cyp3A4 = Cyp3A4 (Homo sapiens, UniProt P08684); assay: Cyp enzyme inhibition, human liver microsomes; format: in vitro ADME; design: Human liver microsomes were pre-incubated with 7 concentrations; tissue Cyprotex/Evotec AG; host or cells: human liver microsomes
Cyp3A4, sequence (P08684 whole entry): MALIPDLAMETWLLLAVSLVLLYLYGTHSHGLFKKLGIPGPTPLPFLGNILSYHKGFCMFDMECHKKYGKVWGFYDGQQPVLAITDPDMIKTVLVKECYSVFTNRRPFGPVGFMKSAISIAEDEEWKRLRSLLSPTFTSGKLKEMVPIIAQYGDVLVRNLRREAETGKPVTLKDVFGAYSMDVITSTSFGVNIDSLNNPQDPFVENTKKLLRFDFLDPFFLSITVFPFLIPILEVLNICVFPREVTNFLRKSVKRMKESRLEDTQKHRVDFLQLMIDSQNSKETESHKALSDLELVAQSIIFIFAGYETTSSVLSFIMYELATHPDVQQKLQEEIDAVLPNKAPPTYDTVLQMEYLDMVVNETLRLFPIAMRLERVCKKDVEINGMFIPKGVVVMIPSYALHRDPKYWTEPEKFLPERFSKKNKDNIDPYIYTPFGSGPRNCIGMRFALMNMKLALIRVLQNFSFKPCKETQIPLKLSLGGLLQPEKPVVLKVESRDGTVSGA
Protocol: as §1

SMILES: C[N+](C)(C)CCC(=O)c1cccc2ccccc12.[I-] [α-NETA, 2-(α-naphthoyl) ethyltrimethylammonium iodide]
- severity of clinical EAE (EAE in C57BL/6 mice): significantly suppressed
- time-dependent (mechanism-based) Cyp inhibition [1]: No time-dependent (mechanism-based) Cyp inhibition was detected
- PXR activation (marker of Cyp induction) [2]: did not induce substantial PXR activity
- IC50 (hERG): > 10 µM
- back skin thickening ([3]; 10 mg/kg s.c., 24 h timepoint): significantly suppressed
- back skin acanthosis ([3]; 30 mg/kg p.o. daily, 7 days, vs vehicle control): significantly diminished
- clinical features of experimental psoriasis ([3]; oral gavage in 10% captisol, FIG. 15D): suppressed
- IC50 (Cyp1A2): 8 µM
- IC50 (Cyp2D6): > 10 µM
- embryo resorption [4]: significant embryo resorption
- IC50 (Cyp3A4; human liver microsomes, substrate Midazolam, read-out: Cyp Inhibition IC50 (μM), Cyp3A4): 7.4 µM and 7.5 µM
- IC50 (Cyp3A4; substrate testosterone, read-out: Cyp3A4 IC50): 6.9 µM
